Measured values taken from patent publication US20050054620A1, “Paricalcitol as a chemotherapeutic agent” (priority 2003, published 2005).

How the values were obtained:
HL-60 cells [1] = assay: CD14 expression by flow cytometry; format: cell-based, human
Description: In order to measure cell surface CD14 antigen on HL-60 cells, promyelocytic leukemia cell line, HL-60, was treated with either 1,25(OH)2D3 or paricalcitol (10^−7M) for 4 days and examined for CD14 expression by flow cytometry using CD14 antibody (DAKO, Carpinteria, Calif.), as described previously (Hisatake et al., supra, 2001). Murine IgG1 antibody (DAKO) was used as a control.
Measurement of cell surface CD14 antigen on HL-60 cells by flow cytometry using CD14 antibody (DAKO, Carpinteria, Calif.), was determined as described previously (Hisatake et al. Blood 97:2427-2433 (2001)). Murine IgG1 antibody (DAKO) was used as a control.

HT-29 cells = assay: Western blot of cell lysates; format: cell-based, human; conditions: 10^−7M, 72 hrs
Description: Western blot analysis was used to determine the levels of proteins involved in cell cycle and differentiation. […] After centrifugation at 15,000×g for 15 min at 4° C., the suspension was collected. Protein concentrations were quantitated using the Bio-Rad assay (Bio-Rad Labolatories, Hercules, Calif.). […] The blots were developed using the Supersignal West Pico Chemiluminescent Substrate Kit (Pierce, Rockford, Ill.). In FIG. 4B, HT-29 cells were exposed to either paricalcitol (10^−7M) or 1,25(OH)2D3(10^−7M). Cell lysates were prepared after 72 hrs of culture and analyzed by Western blot. The Western blot was probed sequentially with antibodies for p27KIP1, p21WAF1, cyclin D1, c-myc and E-Cadherin (antibodies from Santa Cruz Biotechnology) as described in Example II. Control cells were treated with vehicle alone. The quantity of protein was normalized by comparison to the amount of GAPDH. In FIG. 4C, HT-29 and SW837 cells were cultured with either paricalcitol (10^−7M) or 1,25(OH)2D3 (10^−7M) for 72 hrs. Cell lysates were prepared and analyzed by Western blot which was probed sequentially with antibodies to COX-1 and COX-2 (Santa Cruz Biotechnology). Control cells were treated with vehicle alone. The amount of protein was normalized by comparison to the quantity of GAPDH.

NB-4 cells = assay: Western blot of cell lysates; format: cell-based, human; conditions: 10^−7 M, 72 hrs
Description: (§1) Western blot analysis was used to determine the levels of proteins involved in cell cycle and differentiation. For western blot analysis, cells were washed twice in PBS, suspended in lysis buffer [50 mM Tris (pH 8.0), 150 mM NaCl, 0.1% SDS, 0.5% sodium deoxycholate, 1% NP40, […] phenylmethylsulfonyl fluoride, […] aprotinin, […] pepstatin, and […] leupetin] and placed on ice for 30 min. After centrifugation at 15,000×g for 15 min at 4° C., the suspension was collected. Protein concentrations were quantitated using the Bio-Rad assay (Bio-Rad Labolatories, Hercules, Calif.). Whole lysates ([…]) were resolved by 4-15% SDS polyacrylamide gel, transferred to an immobilon polyvinylidene difuride membrane (Amersham Corp., Arlington Heights, Ill.), and probed sequentially with a number of antibodies (p21WAF1, p27KIP1, PTEN, and GAPDH, Santa Cruz Biotechnology Inc., Santa Cruz, Calif.). The blots were developed using the Supersignal West Pico Chemiluminescent Substrate Kit (Pierce, Rockford, Ill.).
(§2) Western blot analysis was performed as follows: cells were washed twice in PBS, suspended in lysis buffer (50 mM Tris at pH 8.0, 150 mM NaCl, 0.1% SDS, 0.5% sodium deoxycholate, 1% Nonidet P-40, phenylmethylsulfonyl fluoride at 100 μg/mL, aprotinin at 2 μg/mL, pepstatin at 1 μg/mL, and leupetin at 10 μg/mL), and placed on ice for 30 minutes. After centrifugation at 15,000×g for 15 minutes at 4° C., the suspension was collected. Protein concentrations were quantitated by using the Bio-Rad protein Assay Dye Reagent Concentrate (Bio-Rad Laboratories, Hercules, Calif.) according to the manufacture's recommendation. Whole cell lysates (40 μg) were resolved by SDS-polyacrylamide gel electrophoresis in a 4%-15% gel, transferred to a polyvinylidene difuride membrane (Immobilon, Amersham Corp., Arlington Heights, Ill.), and probed sequentially with antibodies against the following proteins: VDR, RXR, CEBPβ, Rb, Bcl-2, Bcl-XL, Bax, p-ERK, RARA, GAPDH (Santa Cruz Biotechnology Inc., Santa Cruz, CA). The blots were developed using the Supersignal West Pico Chemiluminescent Substrate Kit (Pierce, Rockford, Ill.).

HL-60 cells [2] = assay: Western blot of cell lysates; format: cell-based, human
Description: as §1, §2

NCI-H929 cells [3] = assay: Cell cycle analysis by flow cytometry; format: cell-based, human; conditions: 10^−7M, 72 hrs
Description: For cell cycle analysis, cells were exposed to 10^−7M 1,25(OH)2D3, 10^−7M paricalcitol or vehicle control for either 3 or 4 days. Total cells, both in suspension and adherent, were collected, washed, suspended in cold PBS. Then cells were fixed in 75% chilled methanol and stained with propidium iodine. Cell cycle status was analyzed on a Becton Dickinson Flow Cytometer.
HCI-H929 cells were cultured with either paricalcitol (10^−7M) or 1,25(OH)2D3 (10^−7M) for 72 hrs, harvested and stained with propidium iodine (PI). Control cells were treated with vehicle alone.

NCI-H929 cells [4] = assay: Western blot of cell lysates; format: cell-based, human; conditions: 10^−7M
Description: Western blot analysis was used to determine the levels of proteins involved in cell cycle and differentiation. […] After centrifugation at 15,000×g for 15 min at 4° C., the suspension was collected. Protein concentrations were quantitated using the Bio-Rad assay (Bio-Rad Labolatories, Hercules, Calif.). […] The blots were developed using the Supersignal West Pico Chemiluminescent Substrate Kit (Pierce, Rockford, Ill.). In FIG. 3C, NCI-H929 cells were treated with either paricalcitol (10^−7M) or 1,25(OH)2D3 (10^−7M) and cell lysates were prepared after 72 hrs. Cell lysates were used for Western blot analysis and probed sequentially with antibodies to p27KIP1, Bcl-2 and Bax. Control cells were treated with vehicle alone. Amount of protein was normalized by comparison to the amount of GAPDH. […] The Bcl-2 and Bax antibodies were obtained from Santa Cruz Biotechnology Inc., Santa Cruz, Calif.

SW837 cells = assay: Western blot of cell lysates; format: cell-based, human; conditions: 10^−7M, 72 hrs
Description: Western blot analysis was used to determine the levels of proteins involved in cell cycle and differentiation. […] After centrifugation at 15,000×g for 15 min at 4° C., the suspension was collected. Protein concentrations were quantitated using the Bio-Rad assay (Bio-Rad Labolatories, Hercules, Calif.). […] The blots were developed using the Supersignal West Pico Chemiluminescent Substrate Kit (Pierce, Rockford, Ill.). In FIG. 4C, HT-29 and SW837 cells were cultured with either paricalcitol (10^−7M) or 1,25(OH)2D3 (10^−7M) for 72 hrs. Cell lysates were prepared and analyzed by Western blot which was probed sequentially with antibodies to COX-1 and COX-2 (Santa Cruz Biotechnology). Control cells were treated with vehicle alone. The amount of protein was normalized by comparison to the quantity of GAPDH.

[5] = humans, cited from earlier work
NCI-H929 cells [6] = assay: TUNEL assay of apoptosis; format: cell-based, human; conditions: 10^−7M, 96 hrs, diluant control 4%
Description: In FIG. […] Results represent the mean±SD of three independent experiments. A TUNEL assay was performed for immunohistochemical detection and quantification of programmed cell death at the single cell level, based on labeling of DNA strand breaks using the In Situ Cell Death Detection, POD (Roche, Indianapolis, Ind.). Early apoptosis was also detected by measuring annexin V protein in the cell membrane using Annexin V-FITC Kit (CLONTECH, Palo Alto, Calif.) followed by flow cytometric analysis.

COc1cccc(-c2cc(=O)c3ccccc3o2)c1N [PD98059]
monocytic differentiation (CD14) induced by paricalcitol and by the combination with arsenic trioxide (HL-60 cells [1]; PD98059 25 μM, 2 days): blocked

C=C1/C(=C\C=C2/CCC[C@]3(C)[C@@H]([C@H](C)CCCC(C)(C)O)CC[C@@H]23)C[C@@H](O)C[C@@H]1O [1,25(OH)2D3]
decrease of COX-2 expression (HT-29 cells): 50%
decrease of c-myc expression (HT-29 cells): ~40%
decrease of cyclin D1 expression (HT-29 cells): about 50%
effect on COX-1 expression (HT-29 cells): suppressed COX-2 but not COX-1 expression
increase of E-cadherin (HT-29 cells): about 6 fold
PTEN expression (in words) (NB-4 cells): induced PTEN expression
induction of p21WAF1 (HL-60 cells [2]; 10^−7M, 72 hr): approximately 7 fold
induction of p27KIP1 (HL-60 cells [2]; 10^−7M, 72 hr): about 6 fold
PTEN expression (in words) (HL-60 cells [2]; 10^−7 M, 72 hrs): induced PTEN expression
increase of accumulation in G1/G0 phase (NCI-H929 cells [3]): 7%
increase in apoptotic sub-G1 population (NCI-H929 cells [3]; diluant control 4% sub-G1): 16%
decrease of Bcl-2 protein level (NCI-H929 cells [4]; 72 hrs): about 40%
effect on levels of Bax (NCI-H929 cells [4]; 72 hrs): did not affect
effect on levels of p21WAF1 (NCI-H929 cells [4]; 96 hrs): little effect
increase of p27KIP1 expression (NCI-H929 cells [4]; 96 hrs): about 3 fold
decrease of COX-2 expression (SW837 cells): 50%
effect on COX-1 expression (SW837 cells): suppressed COX-2 but not COX-1 expression
cells induced to express CD14 (HL-60 cells [1]; 10^−7M, 96 hrs): 54%
serum half-life ([5]; paricalcitol compared with 1,25(OH)2D3): similar
peak serum levels ([5]; typical dose 0.5 to 1.0 mg/every other day): 40 to 60 pg/mL
apoptotic cells (TUNEL) (NCI-H929 cells [6]): 20%
